The text below walks through data of patent US20250186378A1, “COMPOSITION INCLUDING VITAMIN B5 FOR IMPROVING RESPIRATORY HEALTH AND TREATING OR PREVENTING RESPIRATORY DISEASES, PHARMACEUTICAL COMPOSITION INCLUDING THE SAME FOR TREATING OR PREVENTING RESPIRATORY DISEASES, AND HEALTH FUNCTIONAL FOOD COMPOSITION INCLUDING THE SAME FOR IMPROVING RESPIRATORY …” (KT&G CORPORATION, priority 2023, published 2025).

Molecules are shown by their SMILES.

This experiment has as its system total cells in bronchoalveolar lavage fluid. Kind of experiment: Total cell count in bronchoalveolar lavage fluid, PM10D respiratory injury inflammation model. Type of experiment: in vivo, Balb/c mice. The conditions noted are these: vitamin B5 inhaled at 6 mg/kg or more, compared to the induced group and the oral administration group. As for the experimental part: As an experimental animal, Balb/c mice (male, 6 weeks old, body weight of 15 to 17 g) were purchased from Coretech after receiving approval from the Institutional Animal Care and Use Committee (IACUC). After acclimatization for one week in the breeding room of the KT&G Bio-Efficacy Evaluation Center (temperature 23±2° C., humidity 50±10%, 12-hour light/dark cycle), the mice were used in the experiment. A PM10D mixture was prepared by diluting 3 mg/mL of particulate matter 10 (hereinafter PM10) [ERM-CZ120, Sigma Aldrich, St. Louis, MO, USA] and 0.6 mg/mL of diesel particulate matter (hereinafter DEP) [NIST-2975, Sigma Aldrich, St. Louis, MO, USA] in 1% Alum (Aluminium Hydroxide, 239186, Sigma Aldrich, USA). […] The exposure amount of aerosol (mg/L) was calculated as a dose (mg/kg) using a calculation formula based on a prior art (Alexander et al., Inhal Toxicol. 2008 October; 20(13):1179-89.). […] After centrifugation (1500 RPM/4° C./10 min) of the obtained bronchoalveolar lavage fluid, the supernatant was stored in an ultra-low temperature freezer (−70° C.) to measure cytokines, and cells isolated from the bronchoalveolar lavage fluid were treated with ammonium-chloride-potassium buffer (ACK, A10492-01, Gibco, NY, USA) solution for 10 minutes to lyse red blood cells, and then washed again with phosphate buffered saline, and the total cell count was measured using a hematocytometer. […]

As to `CC(C)(CO)[C@@H](O)C(=O)NCCC(=O)O` [vitamin B5, pantothenic acid], the “Total cell count in bronchoalveolar lavage fluid (result in words)” value is “reduced”.
